{"source": "ChEMBL document CHEMBL1127315", "about": "“Substituted O6-benzylguanine derivatives and their inactivation of human O6-alkylguanine-DNA alkyltransferase” (J Med Chem, 1994)", "key": {"[1]": {"molecular_target": "T1, Methylated-DNA--protein-cysteine methyltransferase (Homo sapiens) (UniProt P16455)", "T1 sequence (whole entry)": "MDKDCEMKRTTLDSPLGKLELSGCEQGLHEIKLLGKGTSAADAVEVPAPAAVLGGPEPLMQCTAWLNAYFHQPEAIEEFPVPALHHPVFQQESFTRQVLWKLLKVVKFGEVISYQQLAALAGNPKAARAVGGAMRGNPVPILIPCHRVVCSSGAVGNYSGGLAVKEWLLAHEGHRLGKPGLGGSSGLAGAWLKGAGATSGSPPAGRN", "assay": "Tested for the effective dose required to produce 50 percent inactivation of O6-alkylguanine-DNA alkyltransferase in HT-29 cell free extract; Inactive"}, "[2]": {"molecular_target": "T1, Methylated-DNA--protein-cysteine methyltransferase (Homo sapiens)", "settings": "HT-29"}, "[3]": {"molecular_target": "T1, Methylated-DNA--protein-cysteine methyltransferase (Homo sapiens)", "settings": "HT-29", "remark": "listed apart in the source"}}, "note": "Calls of active or inactive are those of the source. The rule behind the calls is not given here."}
{"smiles": "Nc1nc(Oc2ccccc2)c2[nH]cnc2n1", "values": [{"measurement": "ED50", "setting": "[1]", "value": "inactive"}]}
{"smiles": "C[C@]12CC[C@H]3[C@@H](CCC4CC(=O)CC[C@@]43C)[C@@H]1CC[C@@H]2OC(=O)Cn1cnc2c(OCc3ccccc3)nc(N)nc21", "note": "(stereo not given in full)", "values": [{"measurement": "ED50", "setting": "[2]", "value": 500, "unit": "nM"}, {"measurement": "ED50", "setting": "[3]", "value": 4000, "unit": "nM"}]}
{"smiles": "CC12CCC(=O)C=C1CCC1C2CCC2(C)C(OC(=O)Cn3cnc4c(OCc5ccccc5)nc(N)nc43)CCC12", "note": "(stereo not given)", "values": [{"measurement": "ED50", "setting": "[2]", "value": 500, "unit": "nM"}, {"measurement": "ED50", "setting": "[3]", "value": 5000, "unit": "nM"}]}
